Experimental data from patent publication US20210386367A1, “DEVICES AND SYSTEMS FOR GASTROINTESTINAL MICROBIOME DETECTION AND MANIPULATION” (Progenity, Inc., priority 2018, published 2021).
In brackets after ≈: the same amount, converted by molar mass. Like-named read-outs stand apart in the source and are kept apart here.

Key:
Type in all cases: cell-based
Proteus mirabilis = experiment: Broth microdilution MIC, 50 clinical isolates
In short: (§1)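 CLSI broth microdilution in cation-adjusted Mueller Hinton broth, with 3% lysed horse blood added for streptococci. Two-fold dilutions, inoculum ~5×10^5 CFU/mL, 35° C for 16-24 hr in ambient air (streptococci with CO2 planchets). MIC = lowest concentration inhibiting visible growth.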

Pseudomonas aeruginosa = experiment: Broth microdilution MIC, 50 clinical isolates
In short: as §1

Enterobacter aerogenes = experiment: Broth microdilution MIC, 50 clinical isolates
In short: as §1

Escherichia coli = experiment: Spontaneous mutation frequency and mutation prevention concentration (MPC); details: for MPC: mutant prevention concentration
Text: (§2) As used herein, “spontaneous mutation frequency” refers to the rate at which mutations arise in a bacterium that can lead to resistance to develop to an antimicrobial agent. “Mutation prevention concentration” or “MPC” refers to the lowest concentration of antimicrobial agent above which the selective proliferation of resistant mutants is expected to occur only rarely.

S. pneumonia = experiment: as above; details: S. pneumoniae ATCC 49619
Text: as §2

B. vulgatus = experiment: as above; details: B. vulgatus ATCC 8482
Text: as §2

[1] = E. coli ATCC 25922, ceftriaxone selection 8X MIC, 0.5 μg/mL
[2] = E. coli MMX 1312, ceftriaxone selection 4X MIC, 16 μg/mL
[3] = E. coli MMX 1312, ceftriaxone selection 8X MIC, 32 μg/mL
[4] = ceftriaxone selection 8X MIC, 0.5 μg/mL
[5] = mutant prevention concentration
[6] = ceftriaxone selection 4X MIC, 16 μg/mL
[7] = ceftriaxone selection 8X MIC, 32 μg/mL

## CO/N=C(\C(=O)N[C@@H]1C(=O)N2C(C(=O)O)=C(CSc3nc(=O)c(=O)[nH]n3C)CS[C@H]12)c1csc(N)n1 [ceftriaxone]
Proteus mirabilis
  % R: Six
  % S: 94%
  Mode: 0.004 µg/mL
Proteus mirabilis; 0.004 μg/mL
  Cumulative percentage of isolates inhibited at MIC: 62.0%
  Number of test isolates at MIC: 21
Proteus mirabilis; 0.008 μg/mL
  Cumulative percentage of isolates inhibited at MIC: 84.0%
  Number of test isolates at MIC: 11
Proteus mirabilis; 0.015 μg/mL
  Cumulative percentage of isolates inhibited at MIC: 86.0%
  Number of test isolates at MIC: 1
Proteus mirabilis; 0.03 μg/mL
  Cumulative percentage of isolates inhibited at MIC: 88.0%
  Number of test isolates at MIC: 1
Proteus mirabilis; 0.06 μg/mL
  Cumulative percentage of isolates inhibited at MIC: 92.0%
  Number of test isolates at MIC: 2
Proteus mirabilis; 1 μg/mL
  Cumulative percentage of isolates inhibited at MIC: 94.0%
  Number of test isolates at MIC: 1
Proteus mirabilis; 4 μg/mL
  Cumulative percentage of isolates inhibited at MIC: 96.0%
  Number of test isolates at MIC: 1
Proteus mirabilis; 8 μg/mL
  Cumulative percentage of isolates inhibited at MIC: 98.0%
  Number of test isolates at MIC: 1
Proteus mirabilis; >128 μg/mL
  Cumulative percentage of isolates inhibited at MIC: 100.0%
  Number of test isolates at MIC: 1
Proteus mirabilis; Proteus mirabilis, read-out: MIC50
  MIC50: 0.004 µg/mL (≈ 0.00721 µM)
Proteus mirabilis; Proteus mirabilis, read-out: MIC90
  MIC90: 0.06 µg/mL (≈ 0.108 µM)
Proteus mirabilis; listed as CTR
  % R: 6%^
Proteus mirabilis; ≤0.002 μg/mL
  Cumulative percentage of isolates inhibited at MIC: 20.0%
  Number of test isolates at MIC: 10
Pseudomonas aeruginosa; 4 μg/mL
  Cumulative percentage of isolates inhibited at MIC: 2.0%
  Number of test isolates at MIC: 1
Pseudomonas aeruginosa; 8 μg/mL
  Cumulative percentage of isolates inhibited at MIC: 10.0%
  Number of test isolates at MIC: 4
Pseudomonas aeruginosa; 16 μg/mL
  Cumulative percentage of isolates inhibited at MIC: 16.0%
  Number of test isolates at MIC: 3
Pseudomonas aeruginosa; 32 μg/mL
  Cumulative percentage of isolates inhibited at MIC: 36.0%
  Number of test isolates at MIC: 10
Pseudomonas aeruginosa; 64 μg/mL
  Cumulative percentage of isolates inhibited at MIC: 58.0%
  Number of test isolates at MIC: 11
Pseudomonas aeruginosa; 128 μg/mL
  Cumulative percentage of isolates inhibited at MIC: 72.0%
  Number of test isolates at MIC: 7
Pseudomonas aeruginosa; >128 μg/mL
  Cumulative percentage of isolates inhibited at MIC: 100.0%
  Number of test isolates at MIC: 14
Pseudomonas aeruginosa; Pseudomonas aeruginosa, read-out: MIC50
  MIC50: 64 µg/mL (≈ 115 µM)
Pseudomonas aeruginosa; Pseudomonas aeruginosa, read-out: MIC90
  MIC90: > 128 µg/mL
Pseudomonas aeruginosa; listed as CTR
  MIC90: >128 µg/mL
Enterobacter aerogenes
  % R: 26%
  % S: 74%
  MIC range: 0.03 to 64 µg/mL
  Mode: 0.06 µg/mL
Enterobacter aerogenes; 0.03 μg/mL
  Cumulative percentage of isolates inhibited at MIC: 6.0%
  Number of test isolates at MIC: 3
Enterobacter aerogenes; 0.06 μg/mL
  Cumulative percentage of isolates inhibited at MIC: 42.0%
  Number of test isolates at MIC: 18
Enterobacter aerogenes; 1 μg/mL
  Cumulative percentage of isolates inhibited at MIC: 74.0%
  Number of test isolates at MIC: 2
Enterobacter aerogenes; 8 μg/mL
  Cumulative percentage of isolates inhibited at MIC: 78.0%
  Number of test isolates at MIC: 2
Enterobacter aerogenes; 16 μg/mL
  Cumulative percentage of isolates inhibited at MIC: 86.0%
  Number of test isolates at MIC: 4
Enterobacter aerogenes; 32 μg/mL
  Cumulative percentage of isolates inhibited at MIC: 94.0%
  Number of test isolates at MIC: 4
Enterobacter aerogenes; 64 μg/mL
  Cumulative percentage of isolates inhibited at MIC: 100.0%
  Number of test isolates at MIC: 3
Enterobacter aerogenes; Klebsiella aerogenes, read-out: MIC50
  MIC50: 0.12 µg/mL (≈ 0.216 µM)
Enterobacter aerogenes; Klebsiella aerogenes, read-out: MIC90
  MIC90: 32 µg/mL (≈ 57.7 µM)
Enterobacter aerogenes; listed as CTR
  % R: 26%
Escherichia coli; [1]
  Average Count: 0 CFU
  Count 1: 0 CFU
  Count 2: 0 CFU
  Spontaneous Mutation Frequency: ≤7.41 × 10^−9
Escherichia coli; E. coli ATCC 25922
  MPC: 0.25 µg/mL
Escherichia coli; E. coli ATCC 35218
  MPC: 0.12 µg/mL
Escherichia coli; [2]
  Average Count: TNTC
  Count 1: TNTC
  Count 2: TNTC
Escherichia coli; [3]
  Average Count: TNTC
  Count 1: TNTC
  Count 2: TNTC
S. pneumonia; [4]
  Average Count: 0 CFU
  Count 1: 0 CFU
  Count 2: 0 CFU
  Spontaneous Mutation Frequency: ≤9.52 × 10^−10
S. pneumonia; [5]
  MPC: 0.25 µg/mL
B. vulgatus; [6]
  Average Count: TNTC
  Count 1: TNTC
  Count 2: TNTC
B. vulgatus; ceftriaxone selection 4X MIC, 16 μg/mL, based on estimated count of >500 average CFU
  Spontaneous Mutation Frequency: >8.69 × 10^−8
B. vulgatus; [7]
  Average Count: 0 CFU
  Count 1: 0 CFU
  Count 2: 0 CFU
  Spontaneous Mutation Frequency: ≤1.74 × 10^−10
B. vulgatus; [5]
  MPC: 32 µg/mL
